From PMC11733953, “Identification of a Potent CDK8 Inhibitor Using Structure-Based Virtual Screening” (Journal of Chemical Information and Modeling, 2024)
pIC50: −log10 of the molar value.

Biological target: Cyclin-dependent kinase 8 (CDK8) (Homo sapiens, UniProt P49336)
Test: LanthaScreen Eu kinase binding assay (TR-FRET displacement of Tracer […]), dose-response; […] inhibition at […] in 60-kinase panel

Cyclin-dependent kinase 8 (CDK8), sequence (P49336 whole entry): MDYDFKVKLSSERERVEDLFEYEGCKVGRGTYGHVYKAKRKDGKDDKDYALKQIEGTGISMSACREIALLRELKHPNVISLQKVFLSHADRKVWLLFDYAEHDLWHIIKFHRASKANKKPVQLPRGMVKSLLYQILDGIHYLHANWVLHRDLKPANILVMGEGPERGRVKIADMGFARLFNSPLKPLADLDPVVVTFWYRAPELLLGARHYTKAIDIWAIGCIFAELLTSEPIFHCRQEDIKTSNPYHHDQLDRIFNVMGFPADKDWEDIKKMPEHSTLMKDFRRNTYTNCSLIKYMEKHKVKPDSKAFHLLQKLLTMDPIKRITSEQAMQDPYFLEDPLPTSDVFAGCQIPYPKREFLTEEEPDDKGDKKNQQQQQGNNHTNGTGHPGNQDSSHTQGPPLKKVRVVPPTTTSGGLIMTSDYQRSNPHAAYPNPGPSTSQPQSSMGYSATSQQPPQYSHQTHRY
Cyclin-dependent kinase 8 (CDK8), sequence (P24863 whole entry partner): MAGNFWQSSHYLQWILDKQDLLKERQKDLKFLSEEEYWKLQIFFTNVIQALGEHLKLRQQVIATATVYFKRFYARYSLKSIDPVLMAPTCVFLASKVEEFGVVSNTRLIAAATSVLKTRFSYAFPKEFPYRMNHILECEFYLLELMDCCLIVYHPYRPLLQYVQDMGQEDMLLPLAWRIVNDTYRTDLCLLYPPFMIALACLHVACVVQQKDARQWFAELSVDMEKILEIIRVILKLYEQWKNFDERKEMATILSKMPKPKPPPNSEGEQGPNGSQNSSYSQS

pIC50: 7.30
SMILES: O=C(Cc1nnc(-c2ccc3ncccc3c2)o1)NCc1ccc(F)cc1 [P162-0948]
